Assay results taken from ChEMBL document CHEMBL3301464, “MMV Malaria Box anti-babesial screening”.

Key:
[1] = (§1) MMV: Anti-babesial activity assay. Parasite pRBCs at 1% parasitemia were cultivated in 100 ul with 96-well plates at 2.5% and 5% hematocrits. The parasites were cultivated in triplicate for 4 days without replacement of the medium for each concentration of the compound.; type: functional, Babesia equi
[2] = as §1; type: functional, Babesia bigemina
[3] = as §1; type: functional, Babesia caballi
[4] = as §1; type: functional, Babesia bovis

| SMILES | IC50 [1] [µM] | IC50 [2] [µM] | IC50 [3] [µM] | IC50 [4] [µM] |
| --- | --- | --- | --- | --- |
| O=c1c2c([nH]c3ccccc13)CCCC2 | 4.27 | 5.93 | 4.09 | 2.45 |
| O=C(Nc1ccc(-c2nc3cc(NC(=O)c4ccc(Cl)cc4)ccc3[nH]2)cc1)c1ccc(Cl)cc1 | 13.3 | 5.09 | 9.1 | 17 |
| COc1ccc(NC(=O)C2c3ccccc3C(=O)N(CC(C)C)C2c2cccs2)cc1 (stereo unspecified) | 8.02 | 17.3 | 9.09 | 12.6 |
| CCN1CCN(c2c(C(=O)c3ccccc3)cnc3cc(OC)c(OC)cc23)CC1 | 13 | 1.21 | 15.9 | 0.86 |
| COc1cccc(C(=O)Nc2ccc(-c3nc4ccccc4[nH]3)cc2)c1 | 7.38 | 4.77 | 4.89 | 1 |
| OC1CCCCC1C1(NC(=S)Nc2ccccc2)CCCCC1 (stereo unspecified) | 5.09 | 0.93 | 14.1 | 1.41 |
| CCOc1ccc(CN2CCN(CC(O)COc3ccc(OCC(O)CN4CCN(Cc5ccc(OCC)cc5)CC4)cc3)CC2)cc1 (stereo unspecified) | 0.45 | 0.13 | 0.37 | 0.05 |
| O=C(NC1CCN(Cc2ccccc2)CC1)c1cc(-c2cccnc2)nc2ccc(Cl)cc12 | 0.48 | 13.9 | 0.071 | > 25 |
| COc1ccccc1N1CCN(C(CNS(=O)(=O)c2ccc(Cl)cc2)c2cccnc2)CC1 (stereo unspecified) | 17.2 | 2.16 | 13.5 | 0.669 |
| CCOC(=O)c1cnc2ccc(OC)cc2c1NCc1ccccc1 | 14.1 | 1 | 5.9 | 0.72 |
| FC(F)(F)c1cccc(Nc2nc(-c3ccccc3)nc3ncccc23)c1 | 16 | 4.48 | 12 | 6.8 |
| CCCCC(O)(c1ccc(Cl)cc1)C(CN1CCOCC1)c1ccc(Cl)cc1 (stereo unspecified) | 13.2 | 0.1 | 0.55 | 11.9 |
| COc1ccc(-c2nonc2NC(=O)c2cccc(C)c2)cc1OC | 5.64 | 0.69 | 10 | 0.078 |
| CC1CC(C)CN(C(=O)c2ccc(Cl)cc2Cl)C1 (stereo unspecified) | 19.4 | 14.7 | 3.9 | 6.8 |
| OC(Cn1nnc2ccccc21)Cn1c2ccc(Br)cc2c2cc(Br)ccc21 (stereo unspecified) | 12.6 | 1.3 | 15.9 | 0.1 |
| COc1cc(-c2nc(-c3ccccc3)c(-c3ccccc3)[nH]2)cc(OC)c1O | 12 | 3.34 | 21.7 | 8.03 |
| COCCn1c(C)nc2ccccc2c1=O | 12.9 | 14.7 | 13.9 | 14.3 |
| COc1cc(C(=O)Nc2nc3c(cc4c5c(cccc53)CC4)s2)cc(OC)c1OC | 4.41 | 8.04 | 5 | 3.08 |
| COc1cccc(-c2nn(C)c3sc(C(=O)NCCN4CCN(c5ccccc5F)CC4)cc23)c1 | 5.93 | 10 | 6.8 | 2.06 |
| Cc1ccc(Cn2c(N3CCC(C(=O)NCc4cccs4)CC3)nc3ccccc32)cc1 | 12.9 | 10 | > 25 | 17.7 |
| Oc1ccc(Br)cc1CN1CCN(Cc2cccc(F)c2)CC1 | 13 | > 25 | 14.3 | 17.3 |
| Cc1ccc(C2CC(C(F)(F)F)n3nc(C(=O)N4CCN(C(c5ccccc5)c5ccccc5)CC4)cc3N2)cc1 (stereo unspecified) | 12.6 | 15.9 | 0.98 | 9.55 |

| SMILES | IC50 [1] [µM] | IC50 [2] [µM] | IC50 [3] [µM] | IC50 [4] [µM] |
| --- | --- | --- | --- | --- |
| Cc1ccc(Cl)cc1N1CCN(CCCNC(=O)C2CCN(c3nc4ccccc4[nH]3)CC2)CC1 | 4.77 | 2.4 | 1 | 3.03 |
| COc1ccc(CN2CCCC(C(=O)c3ccc(C(F)(F)F)cc3)C2)c(O)c1 (stereo unspecified) | 3.86 | 19.8 | 16.5 | 0.21 |
| CC1(c2ccccc2)Nc2ccccc2-c2nc3ccccc3n21 (stereo unspecified) | 1 | 10 | 0.08 | 13.8 |
| CN(N=O)C1=C(NC2CCCCC2)C(=O)c2ccccc2C1=O | 0.76 | 4.13 | 0.41 | 0.59 |
| COc1ccc(N2CCN(C(CNC(=O)C3CCCCC3)c3ccc4c(c3)OCO4)CC2)cc1 (stereo unspecified) | 13 | 7.67 | 7.67 | 24.9 |
| CCCCCCOC(=O)C1=C(C)NC(=O)NC1c1ccccc1F (stereo unspecified) | 15.2 | 14.8 | 4.9 | > 25 |
| O=C(Nc1ccc(CN2CCOCC2)cc1)c1ccc(-c2ccc(Br)cc2)o1 | 6.8 | 11.5 | 5.64 | 7.67 |
| c1ccc(-c2ccc(-c3nc4ccccc4[nH]3)cc2)cc1 | 10 | 10 | 14.8 | 25 |
| Cc1[nH]c(-c2ccc(F)cc2)cc1C(=O)NC1CCN(Cc2ccccc2)CC1 | 0.58 | 4.29 | 8.21 | 0.303 |
| Cc1cccc(N2C(=O)C3C(C2=O)C2(c4ccccc4)C(=O)C3(c3ccccc3)C(c3ccc4c(c3)OCO4)=C2c2ccc3c(c2)OCO3)c1 (stereo unspecified) | 13.9 | 25 | 5.5 | 17 |
| Cc1cc(NC(=O)c2ccc(-c3ccccc3)cc2)no1 | 12.4 | 8.54 | 0.076 | 0.24 |
| Cc1ccc(-c2cc3c(SCC(=O)Nc4cc(C(F)(F)F)ccc4Cl)nccn3n2)cc1 | 5.89 | 16.6 | 13.5 | 21.6 |
| CCOc1cc2c(cc1OCC)C(c1cc(Cl)c(O)c(OCC)c1)NCC2 (stereo unspecified) | 12.3 | > 25 | 13.4 | 24 |
| CCOc1c(Cl)cc(CNCC(O)c2ccccc2)cc1OC (stereo unspecified) | 10 | 18.9 | 4.77 | 6.8 |
| CCOc1cc(Cl)c(C(C)NC(=O)c2ccccc2)cc1OCC (stereo unspecified) | 10 | 4.19 | 12.4 | > 25 |
| CC1=C(CC(=O)c2cccc([N+](=O)[O-])c2)C(=O)c2ccccc2C1=O | 4.85 | 0.49 | 6.86 | 0.36 |
| Clc1ccc2c(N3CCCC3)ccnc2c1 | 8.83 | 9.15 | 6.86 | 7.09 |
| O=C(CCl)NCCOc1ccc(Cl)cc1Cl | 16.5 | 13.1 | 12 | 16.5 |
| COc1ccc2sc(N(Cc3cccnc3)C(=O)c3ccc(C#N)cc3)nc2c1 | 14.6 | 11.9 | 6.72 | 13.7 |
| Cc1ccc(C)c(Cn2c(N3CCC(C(=O)NCc4cccs4)CC3)nc3ccccc32)c1 | 10 | 0.1 | 16.5 | 0.13 |
| CCCN(CCC)CCCNC(=O)c1cc2c(-c3ccc(OC)c(OC)c3)nn(C)c2s1 | 19.4 | 3.32 | 5.5 | 11 |
| O=C(NC1CCCCC1)C(c1cccs1)N(CCc1ccccc1)C(=O)c1ccco1 (stereo unspecified) | 14.1 | 10.7 | 10.7 | 8.8 |
